The nature of test [1]: Inhibition of Human influenza virus A/Aichi/2/68 (H3N2) hemagglutininin activity in chicken erythrocytes after 1 hr.
Test [2] in a line: Inhibition of Human influenza virus A/PR/8/34 (H1N1) hemagglutininin activity in chicken erythrocytes after 1 hr.

Some results are limits rather than exact numbers.

Regarding `C=CC(=O)N[C@H]1[C@H]([C@H](O)[C@H](O)CO)O[C@@](SCCCCCCCCCCCC)(C(=O)O)C[C@@H]1O`, the IC50 in test [1] amounted to 3.9 µM; in test [2], 7.81 µM.

In the case of `C=CC(=O)N[C@H]1[C@H]([C@H](O)[C@H](O)CO)OC(O)(C(=O)O)C[C@@H]1O` (stereo partly specified), the IC50 in test [1] and in test [2] was more than 250 µM in each case.

For the compound `C=CC(=O)NCCCCCC(=O)N[C@H]1[C@H]([C@H](O)[C@H](O)CO)O[C@@](SCCCCCCCCCCCC)(C(=O)O)C[C@@H]1O`, the IC50 in test [1] and in test [2] was 7.81 µM each time.

The record behind these values is BindingDB's records for doi:10.1016/j.bmc.2011.10.064 (Saitama University, 2011).
